According to ChEMBL document CHEMBL1201862, “PubChem BioAssay data set” (2004):
Active and inactive are the calls of the source.

How the values were obtained:
[1] = molecular target: T1, Neuropeptides B/W receptor type 1 (Homo sapiens, UniProt P48145); assay: Fluorescence-based dose response cell-based high throughput screening assay to identify antagonists of the G-protein coupled receptor 7 (GPR7). [Related pubchem assays: 1952 (Screening assay (GPR7 antagonists).), 1880 (Summary AID.)]; assay type: functional
T1 sequence (P48145 whole entry): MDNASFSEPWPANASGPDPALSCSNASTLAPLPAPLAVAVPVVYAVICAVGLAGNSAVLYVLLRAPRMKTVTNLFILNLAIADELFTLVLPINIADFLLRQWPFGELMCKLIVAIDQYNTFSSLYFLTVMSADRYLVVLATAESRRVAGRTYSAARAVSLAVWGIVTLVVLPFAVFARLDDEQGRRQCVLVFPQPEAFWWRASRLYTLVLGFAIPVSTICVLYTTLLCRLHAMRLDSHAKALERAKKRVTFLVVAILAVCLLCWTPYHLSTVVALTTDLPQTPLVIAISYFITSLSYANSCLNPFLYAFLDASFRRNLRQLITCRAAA

[2] = molecular target: Melanin-concentrating hormone receptor 1 (Homo sapiens, UniProt Q99705); assay: Fluorescence-based counterscreen for antagonists of the G-protein coupled receptor 7 (GPR7): cell-based high throughput dose response assay to identify antagonists of the melanin-concentrating hormone receptor 1 (MCHR1).; assay type: functional
Sequence of Melanin-concentrating hormone receptor 1 (Q99705 whole entry): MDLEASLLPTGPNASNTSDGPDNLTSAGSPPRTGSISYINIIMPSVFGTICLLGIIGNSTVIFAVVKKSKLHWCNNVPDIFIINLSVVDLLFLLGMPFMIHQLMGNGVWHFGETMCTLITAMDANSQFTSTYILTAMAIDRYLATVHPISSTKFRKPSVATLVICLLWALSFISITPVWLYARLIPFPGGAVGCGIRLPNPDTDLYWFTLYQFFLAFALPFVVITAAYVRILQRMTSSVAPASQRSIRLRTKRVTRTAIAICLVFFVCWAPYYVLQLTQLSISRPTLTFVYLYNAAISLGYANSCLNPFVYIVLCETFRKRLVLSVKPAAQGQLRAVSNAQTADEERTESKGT

[3] = molecular target: T2, Short transient receptor potential channel 4 (Mus musculus, UniProt Q9QUQ5); assay: mouse TRPC4 channel activators, dose response, cell-based, HEK293 TRPC4/mu-opioid, Fluo-4 calcium (AID 434937); assay type: functional
T2 sequence (Q9QUQ5 whole entry): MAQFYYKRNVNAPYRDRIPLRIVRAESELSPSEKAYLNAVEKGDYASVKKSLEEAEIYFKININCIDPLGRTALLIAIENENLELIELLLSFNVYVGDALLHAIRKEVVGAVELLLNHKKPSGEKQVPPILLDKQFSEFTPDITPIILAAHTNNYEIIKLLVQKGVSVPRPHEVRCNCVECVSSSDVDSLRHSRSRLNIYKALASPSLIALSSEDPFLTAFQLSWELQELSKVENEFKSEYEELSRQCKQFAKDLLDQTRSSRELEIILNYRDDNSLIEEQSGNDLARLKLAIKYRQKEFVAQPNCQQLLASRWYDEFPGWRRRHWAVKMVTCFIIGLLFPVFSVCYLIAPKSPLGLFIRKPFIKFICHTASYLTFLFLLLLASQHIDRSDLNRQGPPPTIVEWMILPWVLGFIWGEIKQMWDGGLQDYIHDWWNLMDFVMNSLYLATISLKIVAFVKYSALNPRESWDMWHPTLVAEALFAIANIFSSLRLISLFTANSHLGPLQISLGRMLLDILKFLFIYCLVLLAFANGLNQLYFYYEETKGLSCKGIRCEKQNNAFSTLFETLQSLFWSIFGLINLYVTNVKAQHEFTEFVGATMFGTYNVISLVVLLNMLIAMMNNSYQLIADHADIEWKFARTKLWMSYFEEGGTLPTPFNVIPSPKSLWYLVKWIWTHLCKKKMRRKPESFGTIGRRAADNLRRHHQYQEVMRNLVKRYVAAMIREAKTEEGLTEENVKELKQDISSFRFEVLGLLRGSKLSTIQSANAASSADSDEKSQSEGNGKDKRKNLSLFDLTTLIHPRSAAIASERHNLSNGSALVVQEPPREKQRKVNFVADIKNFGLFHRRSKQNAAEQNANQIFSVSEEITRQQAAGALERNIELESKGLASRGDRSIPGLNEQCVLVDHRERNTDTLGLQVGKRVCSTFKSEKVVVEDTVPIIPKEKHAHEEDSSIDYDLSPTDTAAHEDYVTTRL

[4] = NIH-3T3 fibroblast cytotoxicity, dose response, cytotoxicity control, cell-based, fluorescence, Alamar Blue, secondary assay (AID 2327); assay type: functional;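 also: NIH-3T3 mouse fibroblasts cultured with fluconazole at 8 µg/mL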
[5] = cells; assay type: functional, cell-based
[6] = C. albicans growth with fluconazole, confirmation, fluorescence, retest (AID 2467); assay type: functional, cell-based
[7] = HIV-1 Env-mediated cell fusion inhibitors, dose response, CCR5-tropic Env (AID 2279); assay type: functional
[8] = microbe, parasite or virus in culture; assay type: functional; conditions: Mycobacterium tuberculosis
[9] = cells; assay type: functional, cell-based; remark: listed apart in the source
[10] = molecular target: T2, Short transient receptor potential channel 4; assay: mouse TRPC4 channel inhibitors, dose response, cell-based, HEK293 TRPC4/mu-opioid, Fluo-4 calcium (AID 434942); assay type: functional;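 also: potency of inhibitors blocking the TRPC4 calcium response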
[11] = molecular target: Nonstructural protein 1 (Influenza A virus, UniProt Q194T2); assay type: functional, Influenza A virus (A/California/07/2009(H1N1))
Sequence of Nonstructural protein 1 (Q194T2 whole entry): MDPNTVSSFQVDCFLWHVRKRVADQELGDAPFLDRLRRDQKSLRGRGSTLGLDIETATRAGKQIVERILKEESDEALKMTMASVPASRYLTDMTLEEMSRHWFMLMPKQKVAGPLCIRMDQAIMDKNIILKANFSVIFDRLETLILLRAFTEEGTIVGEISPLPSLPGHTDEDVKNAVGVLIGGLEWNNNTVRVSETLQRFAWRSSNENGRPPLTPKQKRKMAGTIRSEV

[12] = system: INS1; assay: beta cell apoptosis inhibitors, cytokine rescue, dose response, luminescence, retest (AID 449756); assay type: functional, cell-based; conditions: Rattus norvegicus;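 also: cell death triggered by IL-1 beta plus TNF-alpha plus IFN-gamma mixture; protective hits raise ATP signal compared with cytokine alone wells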
[13] = molecular target: T3, Photoreceptor-specific nuclear receptor (Homo sapiens, UniProt Q9Y5X4); assay type: functional, cell-based
T3 sequence (Q9Y5X4 whole entry): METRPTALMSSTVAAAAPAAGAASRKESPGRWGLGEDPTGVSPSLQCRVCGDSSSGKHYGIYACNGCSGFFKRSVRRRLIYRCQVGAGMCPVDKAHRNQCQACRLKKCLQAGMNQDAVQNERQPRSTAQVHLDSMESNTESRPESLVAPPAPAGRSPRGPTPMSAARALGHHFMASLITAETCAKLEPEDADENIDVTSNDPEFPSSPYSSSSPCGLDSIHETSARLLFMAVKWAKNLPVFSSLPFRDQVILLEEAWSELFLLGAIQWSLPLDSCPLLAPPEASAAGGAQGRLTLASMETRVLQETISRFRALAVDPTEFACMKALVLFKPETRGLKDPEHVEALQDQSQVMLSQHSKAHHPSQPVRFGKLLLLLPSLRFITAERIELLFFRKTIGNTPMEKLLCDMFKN

[14] = molecular target: T4, Tyrosine-protein phosphatase non-receptor type 7 (Homo sapiens, UniProt P35236); assay type: functional
T4 sequence (P35236 whole entry): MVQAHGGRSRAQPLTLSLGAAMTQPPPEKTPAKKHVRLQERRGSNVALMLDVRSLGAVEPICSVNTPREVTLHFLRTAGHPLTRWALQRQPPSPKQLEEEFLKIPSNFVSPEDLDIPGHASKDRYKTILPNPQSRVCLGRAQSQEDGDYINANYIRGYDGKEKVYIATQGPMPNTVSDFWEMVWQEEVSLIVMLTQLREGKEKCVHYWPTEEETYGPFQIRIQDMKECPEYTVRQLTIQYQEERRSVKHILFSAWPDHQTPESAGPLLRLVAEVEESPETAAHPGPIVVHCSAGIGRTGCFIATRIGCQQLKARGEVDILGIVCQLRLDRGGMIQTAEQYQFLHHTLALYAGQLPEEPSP

[15] = molecular target: Glyceraldehyde-3-phosphate dehydrogenase (Homo sapiens, UniProt P04406)
[16] = molecular target: Heat shock cognate 71 kDa protein (Homo sapiens, UniProt P11142); assay: In Vitro Hsc70 Dose Response Fluorescence Polarization Assay. [Related pubchem assays: 1072 ]
Sequence of Heat shock cognate 71 kDa protein (P11142 whole entry): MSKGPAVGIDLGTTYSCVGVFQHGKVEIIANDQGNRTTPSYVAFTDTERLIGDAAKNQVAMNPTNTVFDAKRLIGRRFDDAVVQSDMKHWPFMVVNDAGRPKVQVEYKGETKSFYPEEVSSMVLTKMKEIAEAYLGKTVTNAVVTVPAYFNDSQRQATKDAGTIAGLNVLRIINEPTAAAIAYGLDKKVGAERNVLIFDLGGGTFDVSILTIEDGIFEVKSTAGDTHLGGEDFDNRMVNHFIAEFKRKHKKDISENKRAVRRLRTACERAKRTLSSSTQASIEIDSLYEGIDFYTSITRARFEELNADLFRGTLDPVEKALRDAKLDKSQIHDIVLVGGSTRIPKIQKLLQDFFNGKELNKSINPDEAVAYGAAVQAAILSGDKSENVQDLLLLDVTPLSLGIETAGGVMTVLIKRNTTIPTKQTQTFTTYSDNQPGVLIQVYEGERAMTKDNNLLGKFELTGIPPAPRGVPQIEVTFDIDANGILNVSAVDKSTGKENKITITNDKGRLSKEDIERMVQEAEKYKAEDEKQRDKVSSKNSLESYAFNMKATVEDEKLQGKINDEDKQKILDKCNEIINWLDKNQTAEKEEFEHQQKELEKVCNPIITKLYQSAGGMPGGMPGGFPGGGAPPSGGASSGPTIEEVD

[17] = molecular target: Heat shock 70 kDa protein 1A (Homo sapiens, UniProt P0DMV8); assay: Hsp70 inhibitors, SAR follow-up, biochemical, fluorescence polarization (AID 1072)
[18] = molecular target: T5, Dual specificity protein phosphatase 6 (Rattus norvegicus, UniProt Q64346)
T5 sequence (Q64346 whole entry): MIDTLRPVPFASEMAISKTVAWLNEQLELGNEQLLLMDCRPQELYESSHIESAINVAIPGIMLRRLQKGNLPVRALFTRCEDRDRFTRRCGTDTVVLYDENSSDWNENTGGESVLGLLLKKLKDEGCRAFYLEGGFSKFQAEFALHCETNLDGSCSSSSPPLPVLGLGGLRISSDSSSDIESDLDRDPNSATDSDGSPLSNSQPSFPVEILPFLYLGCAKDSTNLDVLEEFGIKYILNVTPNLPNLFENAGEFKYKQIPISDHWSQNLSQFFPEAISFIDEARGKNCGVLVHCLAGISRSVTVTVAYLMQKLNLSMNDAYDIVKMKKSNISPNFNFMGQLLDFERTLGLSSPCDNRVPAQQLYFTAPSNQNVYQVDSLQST

[19] = molecular target: T5, Dual specificity protein phosphatase 6; assay type: functional
[20] = molecular target: Cytochrome P450 2D6 (Homo sapiens, UniProt P10635); assay: qHTS Assay for Inhibitors and Substrates of Cytochrome P450 2D6. [Related pubchem assays: 410 ]; assay type: ADME; conditions: read-out: Potency
Sequence of Cytochrome P450 2D6 (P10635 whole entry): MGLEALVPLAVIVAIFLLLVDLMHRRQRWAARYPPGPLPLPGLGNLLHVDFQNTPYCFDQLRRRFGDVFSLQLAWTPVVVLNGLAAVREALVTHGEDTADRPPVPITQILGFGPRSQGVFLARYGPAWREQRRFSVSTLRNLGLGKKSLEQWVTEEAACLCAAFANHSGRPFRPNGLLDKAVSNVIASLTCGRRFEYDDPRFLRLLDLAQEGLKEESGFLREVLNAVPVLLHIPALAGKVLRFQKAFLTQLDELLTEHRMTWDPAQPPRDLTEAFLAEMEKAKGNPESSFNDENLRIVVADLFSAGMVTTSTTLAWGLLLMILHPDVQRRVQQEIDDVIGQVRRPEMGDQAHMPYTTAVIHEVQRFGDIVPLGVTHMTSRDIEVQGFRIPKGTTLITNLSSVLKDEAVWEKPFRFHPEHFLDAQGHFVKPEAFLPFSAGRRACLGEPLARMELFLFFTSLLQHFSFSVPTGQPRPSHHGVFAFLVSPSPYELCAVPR

[21] = molecular target: Cytochrome P450 2C9 (Homo sapiens, UniProt P11712); conditions: Potency
Sequence of Cytochrome P450 2C9 (P11712 whole entry): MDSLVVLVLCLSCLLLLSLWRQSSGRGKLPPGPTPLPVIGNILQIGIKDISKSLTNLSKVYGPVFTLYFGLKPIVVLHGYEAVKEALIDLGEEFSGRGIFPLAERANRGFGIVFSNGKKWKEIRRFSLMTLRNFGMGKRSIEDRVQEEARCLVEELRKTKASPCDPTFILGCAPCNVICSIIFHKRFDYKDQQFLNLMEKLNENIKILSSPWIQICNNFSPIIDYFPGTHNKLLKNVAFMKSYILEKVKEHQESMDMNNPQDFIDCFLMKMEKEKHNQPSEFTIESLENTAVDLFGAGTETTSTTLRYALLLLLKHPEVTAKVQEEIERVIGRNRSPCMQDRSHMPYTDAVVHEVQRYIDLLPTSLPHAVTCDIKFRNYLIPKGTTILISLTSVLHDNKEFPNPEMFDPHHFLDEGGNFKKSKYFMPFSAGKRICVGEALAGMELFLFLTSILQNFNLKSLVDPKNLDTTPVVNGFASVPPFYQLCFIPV

[22] = system: Staphylococcus aureus; assay: Inhibitors of Bacterial Quorum Sensing Structure Activity Relationship (SAR) Analysis: Dose Response Assay. [Related pubchem assays: 700, 527 ]; assay type: functional, organism-based
[23] = molecular target: T3, Photoreceptor-specific nuclear receptor; assay type: functional
[24] = molecular target: Peroxisome proliferator-activated receptor gamma/Nuclear receptor corepressor 2 (Homo sapiens, UniProt P37231+Q9Y618); assay type: functional
[25] = molecular target: Serine/threonine-protein phosphatase PP1-alpha catalytic subunit (Homo sapiens, UniProt P62136); assay: PP1 phosphatase inhibitors, dose response, biochemical, fluorescence (AID 2403);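 also: phosphatase turnover of OMFP into fluorescent 3-O-methylfluorescein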
[26] = molecular target: Serine/threonine-protein phosphatase (Homo sapiens, UniProt Q9BPW0); assay: Counterscreen for inhibitors of PP1: fluorescence-based biochemical high throughput dose response assay to identify inhibitors of Protein Phosphatase 5 (PP5). [Related pubchem assays: 2034 (Summary (PP5 inhibitors)), 1987 (PP5 inhibitors in singlate), 2235 (PP1 inhibitors in singlate)]
Sequence of Serine/threonine-protein phosphatase (Q9BPW0 whole entry): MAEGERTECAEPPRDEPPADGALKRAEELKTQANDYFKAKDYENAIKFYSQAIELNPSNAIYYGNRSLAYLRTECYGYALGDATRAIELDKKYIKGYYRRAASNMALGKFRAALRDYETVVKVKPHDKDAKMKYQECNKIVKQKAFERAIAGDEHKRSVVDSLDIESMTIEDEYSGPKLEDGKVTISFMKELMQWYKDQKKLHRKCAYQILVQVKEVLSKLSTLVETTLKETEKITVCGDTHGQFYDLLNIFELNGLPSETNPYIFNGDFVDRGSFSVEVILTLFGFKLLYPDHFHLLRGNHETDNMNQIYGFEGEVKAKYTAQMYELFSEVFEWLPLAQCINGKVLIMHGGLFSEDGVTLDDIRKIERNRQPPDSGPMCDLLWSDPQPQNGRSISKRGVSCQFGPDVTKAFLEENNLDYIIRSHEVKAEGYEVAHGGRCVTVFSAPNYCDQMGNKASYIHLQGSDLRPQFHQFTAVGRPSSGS

[27] = growth suppression of PTEN-null colon cells, dose response, cell-based, HCT116 PTEN knockout (AID 1047); assay type: functional;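 also: HCT116 colon tumor cells with PTEN knocked out; cells exposed to compound for 60 hours before readout; potency for loss of cell viability measured by luminescence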
[28] = growth suppression of beta-catenin-knockout colon cells, dose response, cell-based, HCT116, human colon tumor (AID 1045); assay type: functional;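 also: HCT116 colon tumor cells with beta catenin knocked out; cells exposed to compound for 60 hours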
[29] = molecular target: T6, Eukaryotic translation initiation factor 2-alpha kinase 3 (Homo sapiens, UniProt Q9NZJ5); assay: Dose response cell-based high-throughput screening assay to measure PERK inhibition. [Related pubchem assays: 1416 ]; assay type: functional
T6 sequence (Q9NZJ5 whole entry): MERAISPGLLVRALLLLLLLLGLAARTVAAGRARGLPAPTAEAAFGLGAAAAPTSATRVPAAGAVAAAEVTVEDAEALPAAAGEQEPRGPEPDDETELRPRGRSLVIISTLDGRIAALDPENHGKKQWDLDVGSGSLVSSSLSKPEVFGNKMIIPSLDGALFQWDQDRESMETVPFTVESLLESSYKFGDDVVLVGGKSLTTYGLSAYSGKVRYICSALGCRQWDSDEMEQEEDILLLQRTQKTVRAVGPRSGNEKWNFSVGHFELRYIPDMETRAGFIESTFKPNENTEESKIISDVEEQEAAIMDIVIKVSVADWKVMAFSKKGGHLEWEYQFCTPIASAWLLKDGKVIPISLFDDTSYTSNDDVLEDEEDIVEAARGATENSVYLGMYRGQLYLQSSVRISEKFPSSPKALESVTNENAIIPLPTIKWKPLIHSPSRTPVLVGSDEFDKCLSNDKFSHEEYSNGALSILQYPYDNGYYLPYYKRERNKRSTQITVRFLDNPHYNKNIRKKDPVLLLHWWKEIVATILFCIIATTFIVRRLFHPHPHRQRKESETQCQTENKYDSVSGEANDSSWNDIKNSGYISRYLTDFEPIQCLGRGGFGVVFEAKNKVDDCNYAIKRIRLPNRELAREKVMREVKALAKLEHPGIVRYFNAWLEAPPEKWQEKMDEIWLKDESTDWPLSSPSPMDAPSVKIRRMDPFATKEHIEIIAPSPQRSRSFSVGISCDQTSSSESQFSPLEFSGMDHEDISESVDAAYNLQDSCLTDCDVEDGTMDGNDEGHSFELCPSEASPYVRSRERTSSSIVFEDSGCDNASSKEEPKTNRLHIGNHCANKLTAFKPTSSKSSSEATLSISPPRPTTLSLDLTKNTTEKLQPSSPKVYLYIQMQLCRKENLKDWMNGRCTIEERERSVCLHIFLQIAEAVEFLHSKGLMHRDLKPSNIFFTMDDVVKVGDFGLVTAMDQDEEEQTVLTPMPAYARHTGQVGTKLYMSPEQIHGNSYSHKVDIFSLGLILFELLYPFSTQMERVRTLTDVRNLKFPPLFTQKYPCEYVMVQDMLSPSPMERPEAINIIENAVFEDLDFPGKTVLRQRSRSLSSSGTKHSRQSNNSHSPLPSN

[30] = molecular target: T6, Eukaryotic translation initiation factor 2-alpha kinase 3; assay: Counterscreen assay for PERK inhibitors: Dose response cell-based high throughput screening assay to measure inhibition of PERK at 6 hours. [Related pubchem assays: 1522, 1416 ]; assay type: functional
[31] = system: Streptococcus; assay: Luminescence Microorganism-Based Dose Response Follow up to Identify Compounds Cytotoxic to Streptococcus. [Related pubchem assays: 1677 (Project Summary), 1915, 1914, 1902 (Retest at Dose), 1900 (Counter Screen), 1662 (Primary HTS)]; assay type: functional, organism-based
[32] = enhancers of respiration in Yfh1-depleted yeast, dose response, Friedreich's ataxia, plus single-dose screen (AID 1465); assay type: functional;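 also: yeast depleted of Yfh1p frataxin homolog grown on glycerol needing respiration; WST-1 tetrazolium dye reduction as measure of cellular dehydrogenase metabolic activity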
[33] = molecular target: Lysosomal acid glucosylceramidase (Homo sapiens, UniProt P04062); assay: Dose response cell-based high throughput screening assay to identify enhancers of beta-glucosidase activity. [Related pubchem assays: 784 ]; assay type: functional
Sequence of Lysosomal acid glucosylceramidase (P04062 whole entry): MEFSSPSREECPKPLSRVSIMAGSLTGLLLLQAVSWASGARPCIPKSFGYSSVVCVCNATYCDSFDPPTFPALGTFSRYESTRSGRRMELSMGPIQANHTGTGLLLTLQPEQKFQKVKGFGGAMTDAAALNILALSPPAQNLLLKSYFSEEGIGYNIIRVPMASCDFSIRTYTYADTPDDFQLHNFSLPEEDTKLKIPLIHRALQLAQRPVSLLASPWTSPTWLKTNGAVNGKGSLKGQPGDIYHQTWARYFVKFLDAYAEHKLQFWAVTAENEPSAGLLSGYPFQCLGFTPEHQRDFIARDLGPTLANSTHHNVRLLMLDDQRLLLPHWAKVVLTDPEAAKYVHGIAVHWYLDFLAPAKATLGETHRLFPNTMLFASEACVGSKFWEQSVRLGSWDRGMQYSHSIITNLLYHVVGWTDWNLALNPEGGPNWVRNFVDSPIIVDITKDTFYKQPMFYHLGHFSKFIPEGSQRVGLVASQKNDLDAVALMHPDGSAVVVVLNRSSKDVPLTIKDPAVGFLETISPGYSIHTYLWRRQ

[34] = molecular target: T7, Estrogen receptor (Homo sapiens, UniProt P03372); assay: ERα–SRC-3 coactivator interaction inhibitors, confirmation, orthogonal assay, biochemical, ELISA, streptavidin-HRP readout (AID 1079)
T7 sequence (P03372 whole entry): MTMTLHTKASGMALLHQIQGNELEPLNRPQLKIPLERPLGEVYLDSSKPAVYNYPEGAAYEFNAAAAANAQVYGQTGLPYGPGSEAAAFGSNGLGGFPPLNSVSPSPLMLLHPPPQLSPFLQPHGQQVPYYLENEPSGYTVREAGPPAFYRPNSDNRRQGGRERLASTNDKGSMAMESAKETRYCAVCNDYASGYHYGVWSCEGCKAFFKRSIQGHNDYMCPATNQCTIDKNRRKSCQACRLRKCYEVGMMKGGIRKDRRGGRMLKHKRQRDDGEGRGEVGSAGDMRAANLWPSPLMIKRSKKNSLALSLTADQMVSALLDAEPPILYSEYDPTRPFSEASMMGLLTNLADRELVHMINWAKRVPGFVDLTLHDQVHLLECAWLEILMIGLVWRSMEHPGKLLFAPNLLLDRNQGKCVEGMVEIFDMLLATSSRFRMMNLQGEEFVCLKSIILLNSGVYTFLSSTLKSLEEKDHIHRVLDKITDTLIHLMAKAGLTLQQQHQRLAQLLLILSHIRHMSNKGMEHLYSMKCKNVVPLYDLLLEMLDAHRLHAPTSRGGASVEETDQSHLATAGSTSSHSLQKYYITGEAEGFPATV

[35] = molecular target: Mothers against decapentaplegic homolog 3 (Homo sapiens, UniProt P84022); assay: Smad3 binding inhibitors, lysate ELISA, dose response, cell lysate, secondary confirmation, chemiluminescent ELISA, HEK293 lysate (AID 1058); assay type: functional

CC(NCCC1(Cc2ccccc2Cl)CCOC(C)(C)C1)c1cccs1 (stereo not given)
IC50 [1]: 12.7 µM (not active)
IC50 [2]: 13.3 µM (not active)
EC50 [3]: 5.31 µM (active)

Brc1ccc(N/N=C(/N=Nc2nn[nH]n2)c2ccccc2)cc1
EC50 [4]: 2.55 µM (inconclusive)
EC50 [5]: 86.5 µM (active)
EC50 [6]: > 38 µM (not active)
IC50 [7]: 9.87 µM (active)
CC50 [8]: 7.7 µM (active)
EC50 [9]: 47.2 µM (active)
EC50 [10]: 7.5 µM (active)
IC50 [11]: 6 µM (active)
AC50 [12]: 1.77 µM (active)
IC50 [13]: 6.49 µM (active)

O=C(O)C1Nc2ccc([N+](=O)[O-])cc2C2C=CCC12 (stereo not given)
IC50 [14]: 7.58 µM (active)
IC50 [15]: 97.4 µM (active)
IC50 [16]: 48.4 µM (active)
IC50 [17]: 6.06 µM (active)
IC50 [18]: 52 µM (active)
IC50 [19]: 47.5 µM (active)

CN(C)c1ccc(C(=C2C=CC(=[N+](C)C)C=C2)c2c(O)c(S(=O)(=O)[O-])cc3cc(S(=O)(=O)O)ccc23)cc1
AC50 [20]: 3.16 µM (inconclusive)
AC50 [21]: 2.51 µM (inconclusive)

COc1ccccc1N1CCN(C(CNC(=O)c2cccc(Cl)c2)c2cccnc2)CC1 (stereo not given)
IC50 [22]: 0.457 µM (active)

CCNC(=S)Nc1nc2c(cc1C(=O)OCC)CCCC2
IC50 [23]: > 39.8 µM (not active)
IC50 [24]: 32.7 µM (not active)

COc1ccc2c(Cl)c(C(=O)N/N=C/c3ccc4c(c3)OCO4)sc2c1
IC50 [25]: 5.11 µM (active)
IC50 [26]: > 67 µM (not active)
EC50 [27]: 20.7 µM (active)
EC50 [28]: 25.4 µM (active)

Cn1nc(C(F)(F)F)c(-c2ccccc2)c1NC(=O)CCC(=O)O
EC50 [29]: > 55.7 µM (not active)
EC50 [30]: > 55.7 µM (not active)

O=C(CSc1ccncc1)N1c2ccccc2Sc2ccccc21
EC50 [31]: > 500 µM (not active)

COc1cccc(N/N=C2\C(=O)Nn3c2nc2c(c3=O)CCC2)c1
EC50 [32]: > 100 µM (active)

CC1=C(C(=O)Nc2cccnc2)C(c2ccncc2)n2nnnc2N1 (stereo not given)
EC50 [33]: > 50 µM (not active)

O=C(CCCCCn1c(=S)[nH]c2ccccc2c1=O)N1CCN(c2ccc(C(F)(F)F)cc2)CC1
IC50 [34]: 42.8 µM (not active)

Oc1cc2c(cc1C(c1ccc3c(c1)OCO3)N1CCOCC1)OCO2 (stereo not given)
IC50 [35]: > 40 µM (not active)
